This is an account of results in patent US12559504B2, “Benzotriazole derivative” (UBE CORPORATION, priority 2019, dated 2026).

Each structure is given as a SMILES string.

Data set [1] concerns the target T1, GST fusion human Keap1 (amino acid residue: 325-624) protein (Homo sapiens, UniProt Q14145).
T1 construct: GST fusion human Keap1 (amino acid residue: 325-624) protein; purchased Protein tech Ag0779
As to the kind of experiment: Keap1-Nrf2 binding inhibition test (fluorescence polarization). As to conditions: compound concentration of 100 nM; read-out: inhibition rate. The protocol: The inhibitory activity of each test compound on the binding between Nrf2 and Keap1 was measured by the fluorescence polarization method. A solution consisting of 20 mM tris-hydrochloride pH7.5 (NIPPON GENE CO., LTD., REF: 318-90225), 150 mM NaCl [FUJIFILM Wako Pure Chemical. Corporation, REF: 191-01665], 0.05% Tween 20 (BioRAD, REF: 161-0781), and 5 mM DTT (FUJIFILM Wako Pure Chemical Corporation, REF: 049-08972) was used as a buffer solution. To a test compound solution (70 μL) adjusted to each concentration with 10% DMSO (FUJIFILM Wako Pure Chemical Corporation, REF: 043-07216) was added a buffer solution (350 μL) comprising 6 nM FITC-labeled Nrf2 peptide (FITC-Ahx-LDEETGEFL-NH2, Invitrogen) and 0.2 mg/mL of BSA (FUJIFILM Wako Pure Chemical Corporation, REF: 017-22231). Each 120 μL of the resulting mixture was dispensed into a black 96 well plate, and a buffer solution (80 μL) comprising 2.5 nM GST fusion human Keap1 (amino acid residue: 325-624) protein (Protein tech, REF: Ag0779) was added thereto. A Keap1-free buffer solution was added to some wells to prepare negative controls. Meanwhile, compound-free wells were used as positive controls. The plate was incubated at room temperature for 30 minutes, and each fluorescence polarization at excitation wavelength of 482 nm and fluorescence wavelength of 530 nm was measured by using a plate reader Clariostar (BMG Labtech). The fluorescence polarization of the negative control was set to be 100% inhibition, fluorescence polarization of the positive control was set to be 0% inhibition, and the inhibition rate of each test compound at 100 nM was calculated by using the following equation. Inhibition rate (%)=100−((Fluorescence polarization when test compound was added−Fluorescence polarization of negative control)/(Fluorescence polarization of positive control−Fluorescence polarization of negative control))×100

In data set [2] the test system is NQO1. The experiment in a line: NQO1 enzyme induction test (in vitro) in Hepa1c1c7 cells. The format is cell-based. The note with it: Mus musculus, Hepa-1c1c7, 48 h, concentration to elevate the NQO1 activity by 1.5 times, about 48 hours, read-out: EC150. The protocol: Each NQO1 assay was carried out by modifying a known method (Anal Biochem 1998; 169: 328-, Methods Enzymol 2004; 382: 243-). Hepa1c1c7 cells (mouse hepatocyte line manufacture by DS Pharma Biomedical Co., Ltd., REF. No. 95090613) were cultured (5% CO2, 37° C.). The cells were cultured in MEMα (manufactured by FUJIFILM Wako Pure Chemical Corporation, REF. 135-15175) medium comprising 10% FBS (manufactured by GIBCO, REF. 10082) and […]/streptomycin/amphotericin B (manufactured by GIBCO, REF. 15240), and dispensed into a 96 well plate (manufactured by Costar, REF. 3610) at 2.0×10^3 cells/well. On the next day, test compound (final concentration of […]: 0.1%) dissolved into DMSO (manufactured by FUJIFILM Wako Pure Chemical Corporation, REF. 043-07216) was added to each well, and the plate was further cultured for about 48 hours.
A cell lysate manufactured by Cell signaling Technology, Inc. (REF. 9803) with the addition of a Protease Inhibitor manufactured by Roche Diagnostics K.K. (REF. 11-873580001) was used. A reaction solution (which is a solution comprising trishydrochloric acid (25 mM), albumin […], Tween-20 (0.01%), glucose-6-phosphate dehydrogenase (2 U/mL), flavin-adenine dinucleotide (5 μM), glucose-6-phosphate (1 μM), nicotinamide adenine dinucleotide phosphate (30 μM), 3-(4,5-dimethyl-2-thiazolyl)-2,5-diphenyltetrazolium bromide (MTT) (0.03%), and menadione (50 μM)), and a stop solution (which is a solution comprising dicumarol (0.3 mM) and potassium dihydrogen phosphate (5 mM), pH 7.4) were prepared. After the medium was removed, cell lysate (50 μL) was added thereto, and the resulting mixture was shaken at room temperature for 20 minutes. The reaction solution (200 μL) was added thereto, and the resulting mixture was left to stand at room temperature for 5 minutes. The stop solution (50 μL) was added thereto, and absorbance at 540 nm (reference 750 nm) was measured.
Cell number was measured by Cell Titer Glo assay (manufactured by Promega Corporation, REF. G9242) by using another plate prepared according to the same conditions as those described above, and correction of absorbance was carried out. The test result was analyzed by Excel, and the EC150 value which is the concentration to elevate the NQO1 activity by 1.5 times was calculated.

The nature of data set [3]: Metabolism test using human liver microsome fractions. The format is in vitro ADME. The note with it: human liver microsomes, test compound 10 μmol/L, NADPH and UDP-glucuronic acid, 37° C. On the procedure:
A reaction composition solution (comprising NADPH Regenerating System, Solution A (manufactured by Corning Inc., REF. 451220) (50 μL), NADPH Regenerating System, Solution B (manufactured by Corning Inc., REF. 451200) (10 μL), 250 mM UDP-glucuronic acid (40 μL), UGT Reaction Mix Solution B (manufactured by Corning Inc., REF. 451320) (200 μL), and distilled water (640 μL)) in which human liver microsomes (manufactured by Xenotech, Cat. No. H610) or monkey liver microsomes (manufactured by Xenotech, Cat. No. P2000) (corresponding to 1 mg of protein) were suspended was prepared. After the solution was incubated at 37° C. for 5 minutes, each test compound dissolved into DMSO (manufactured by FUJIFILM Wako Pure Chemical Corporation, Code No. 043-07216) was added to the solution so that the final concentration was set to be 10 μmol/L, and a reaction was initiated. After 0, 5, 10, 15, 20, and 30 minute(s) from the initiation of the metabolism reaction, 100 μL of the reaction solution was taken out of the reaction system, and added to 200 μL of acetonitrile to stop the reaction. After the reaction was completed, the reaction solution was subjected to a work-up such as deproteinization, and then subjected to an UV-HPLC analysis to carry out the following analysis.
The peak area of each test compound was calculated by LabSolution software (Shimadzu Corporation), and the residual ratio (%) at each culture time of test material was calculated by the following equation. Residual ratio (%)=Peak area at each culture time[…]Peak area at 0 (initial time)
Next, the residual amount (nmol/mg/mL) at each culture time of test material was calculated by the following equation. Residual amount (nmol/mg/mL)=Initial concentration of reaction solution (10 nmol/mg/mL)×residual ratio÷100
Finally, a graph in which the reaction time was plotted at horizontal axis and the residual amount was plotted at longitudinal axis was prepared on Excel, and the inclination was calculated as the elimination rate (pmol/min/mg-P) within the time range in which the graph was deemed linear.

Data set [4] concerns NQO1. The experiment in a line: NQO1 expression induction test in mouse kidney (single administration). The note with it: Mus musculus, po, 6 h, BALB/c mouse kidney, 6 hours after administration, ratio to control group. It counts as in vivo. The protocol:
Each test compound solution for administration was prepared by dissolving or suspending each test compound into a 0.5 w/v % aqueous solution of methylcellulose (0.5% MC) (manufactured by Wako Pure Chemical Industries, Ltd.).
Each prepared test compound was orally administered to a BALB/c mouse (female, provided by Charles River Laboratories Japan, Inc.). Non-treated group was used as a control group. After 6 hours from the administration, each mouse was anesthetized with isoflurane, and euthanized with bloodletting by incising a lower aorta. Immediately, the left kidney was excised, cut into small pieces, and then the cut kidney pieces were transferred to RNA later (Thermo Fisher Scientific).
Then, mRNA was extracted from the collected kidney pieces by using NucleoSpin (registered trademark) RNA Kit (Takara Bio Inc.), each concentration was quantified by FlexStation3 (Molecular Devices), and then the concentration was adjusted to a constant concentration. A reverse transcription synthesis of cDNA was carried out from the mRNA with the constant concentration by using PrimeScript™ RT reagent Kit with gDNA Eraser and PCR Thermal Cycler (Takara Bio Inc.). Then, in addition to the resulting cDNA, SYBR (registered trademark) Premix Ex Taq™ II and NQO1, GAPDH primer (Takara Bio Inc.) were used to carry out Real-time PCR by PCR Thermal Cycler Dice Real time (Takara Bio Inc.), and the NQO1 expression was quantified by using the GAPDH expression as the reference.
In order to evaluate the NQO1 expression induction in each group, the NQO1 expression induction ratio was calculated by using the following equation. (NQO1 expression induction ratio)=(Average NQO1 expression in test compound administered group)[…](Average NQO1 expression in control group)

T1 sequence (Q14145 325-624): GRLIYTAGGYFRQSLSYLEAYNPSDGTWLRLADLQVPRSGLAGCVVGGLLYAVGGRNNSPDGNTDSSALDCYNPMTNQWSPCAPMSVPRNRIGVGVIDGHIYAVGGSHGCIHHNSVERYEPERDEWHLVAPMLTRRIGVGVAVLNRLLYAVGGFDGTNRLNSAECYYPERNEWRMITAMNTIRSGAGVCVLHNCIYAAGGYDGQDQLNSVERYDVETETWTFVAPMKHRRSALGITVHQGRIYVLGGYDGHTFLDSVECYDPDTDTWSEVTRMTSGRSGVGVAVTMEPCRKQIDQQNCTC

For `CC[C@@H]1CN(Cc2cc(C(c3ccc4c(nnn4C)c3C)C(C)(C)C(=O)O)ccc2C)Cc2c(ccc3cn[nH]c23)O1` (stereo partly drawn) [Example 20-(b), 3-(1,4-dimethyl-1H-benzo[d][1,2, 3]triazol-5-yl)-3-(3-(((R)-7-ethyl-1,7,8,10-tetrahydro-9H-[1,4]oxazepino[7,6-g]indazol-9-yl)methyl)-4-methylphenyl)-2,2-dimethylpropanoic Acid], in data set [1], the inhibition at 0.1 µM was ≥ 50%. The EC (1.5-fold NQO1 activity) in the data set on NQO1 [2] is 0.0005 to 0.005 µM. The Human metabolic rate result in data set [3] is given as “D (200≤metabolic rate<250 pmol/min/me protein)”.
`CC[C@@H]1CN(Cc2cc(C(c3ccc4c(nnn4C)c3C)C3(C(=O)O)CCCC3)ccc2C)Cc2cc3ncccc3cc2O1` (stereo partly drawn) [Example 83-(b), 1-((1,4-dimethyl-1H-benzo[d][1,2,3]triazol-5-yl) (3-(((R)-2-ethyl-2,3-dihydro-[1,4]oxazepino[7,6-g]quinolin-4 (5H)-yl)methyl)-4-methylphenyl)methyl)cyclopentane-1-carboxylic Acid]: in the data set with NQO1 [2], the EC (1.5-fold NQO1 activity) was 0.005 to 0.05 µM. The Human metabolic rate result in data set [3] was “C (150≤metabolic rate<200 pmol/min/mg protein)”. In the data set with NQO1 [4], the fold induction at 20 mg/kg was > 6.
In the case of `Cc1ccc(C(c2ccc3c(nnn3C)c2C)C(C)(C)C(=O)O)cc1CN1Cc2cc3ncccc3cc2OC2(CC2)C1` (single isomer, unassigned) [Example 85, 3-(3-((3′H-spiro[cyclopropane-1,2′-[1,4]oxazepino[7,6-g]quinoline]-4′(5′H)-yl)methyl)-4-methylphenyl)-3-(1,4-dimethyl-1H-benzo[d][1,2,3]triazol-5-yl)-2,2-dimethylpropanoic Acid], in data set [1], the inhibition at 0.1 µM was ≥ 50%. For the same compound, the EC (1.5-fold NQO1 activity) with NQO1 [2] lay in the range of 0.0005 to 0.005 µM. Also, in data set [3], the Human metabolic rate entry is “A (metabolic rate<100 pmol/min/mg protein)”.
On to `CC[C@@H]1CN(Cc2cc(C(c3ccc4c(nnn4C)c3C)C(C)(C)C(=O)O)ccc2C)Cc2ccc3ncccc3c2O1` (stereo partly drawn) [Example 28-(b), 3-(1,4-dimethyl-1H-benzo[d][1,2,3]triazol-5-yl)-3-(3-(((R)-2-ethyl-2,3-dihydro-[1,4]oxazepino[7,6-f]quinolin-4(5H)-yl)methyl)-4-methylphenyl)-2,2-dimethylpropanoic Acid], for which, in data set [1], the inhibition at 0.1 µM was ≥ 50%. In the data set on NQO1 [2], the EC (1.5-fold NQO1 activity) was in the range of 0.0005 to 0.005 µM. Besides, the fold induction at 30 mg/kg in the data set on NQO1 [4] is 3 to 6.
Turning to `CC[C@@H]1CN(Cc2cc(C(c3ccc4c(nnn4C)c3C)C(C)(C)C(=O)O)ccc2C)Cc2cc3[nH]ncc3cc2O1` (stereo partly drawn) [Example 64-(b), 3-(1,4-dimethyl-1H-benzo[d][1,2,3)triazol-5-yl)-3-(3-(((R)-6-ethyl-1,6,7,9-tetrahydro-8H-(1,4]oxazepino[7,6-f]indazol-8-yl)methyl)-4-methylphenyl)-2,2-dimethylpropanoic Acid], in data set [1], the inhibition at 0.1 µM is ≥ 50%. In the data set with NQO1 [2], the EC (1.5-fold NQO1 activity) fell in the range of 0.005 to 0.05 µM. In addition, the Human metabolic rate result in data set [3] is reported as “B (100≤metabolic rate<150 pmol/min/mg protein)”.
With `CC[C@@H]1CN(Cc2cc(C(c3ccc4c(nnn4C)c3C)C(C)(C)C(=O)O)ccc2C)Cc2cc(Cl)c3ccccc3c2O1` (stereo partly drawn) [Example 67-(b), 3-(3-(((R)-7-chloro-2-ethyl-2,3-dihydronaphtho[2,1-f][1,4]oxazepin-4 (5H)-yl)methyl)-4-methylphenyl)-3-(1,4-dimethyl-1H-benzo[d][1,2,3]triazol-5-yl)-2,2-dimethylpropanoic Acid], the inhibition at 0.1 µM in data set [1] was ≥ 50%. The EC (1.5-fold NQO1 activity) in the data set with NQO1 [2] was 0.005 to 0.05 µM. Besides, in the data set on NQO1 [4], the fold induction at 20 mg/kg was ≤ 3.
For `CC[C@@H]1CN(Cc2cc(C(c3ccc4c(nnn4C)c3C)C(C)(C)C(=O)O)ccc2C)Cc2cc3cc(C)ccc3nc2O1` (stereo partly drawn) [Example 14-(b), 3-(1,4-dimethyl-1H-benzo[d][1,2,3]triazol-5-yl)-3-(3-(((R)-2-ethyl-8-methyl-2,3-dihydro-[1,4]oxazepino[7,6-b]quinolin-4 (5H)-yl)methyl)-4-methylphenyl)-2,2-dimethylpropanoic Acid], in data set [1], the inhibition at 0.1 µM was ≥ 50%. In addition, the EC (1.5-fold NQO1 activity) in the data set on NQO1 [2] was 0.0005 to 0.005 µM. For the same compound, the fold induction at 30 mg/kg in the data set with NQO1 [4] was > 6.
